Results: PubChem BioAssay AID1963968 (Molecular Pharmacology Branch, DTP, NCI, 2024)

Test system: 945468-187-T-J3-PDC spheroids with HUVEC/MSC, viability
Experiment: Anticancer human tumor 945468-187-T-J3-PDC patient-derived rectal carcinoma cell line growth inhibition [PI3K]
Conditions: for IC50: curve of first compound; for viability, T/C: stronger effect = lower value
In short: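 Combination activity was assessed by viability in multicellular tumor spheroids carrying HUVEC and MSC components. Agents were tested with PI3K inhibitors from a Cmax-based top dose (or 10 microM) downward in half-log increments.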

[1] = second compound 0.0316 µM, first compound 0.0316 µM
[2] = second compound 0.0316 µM, first compound 0.1 µM
[3] = second compound 0.1 µM, first compound 0.0316 µM
[4] = second compound 0.1 µM, first compound 0.1 µM
[5] = second compound 0.316 µM, first compound 0.0316 µM
[6] = second compound 0.316 µM, first compound 0.1 µM
[7] = second compound 1 µM, first compound 0.0316 µM
[8] = second compound 1 µM, first compound 0.1 µM
[9] = second compound 3.16 µM, first compound 0.0316 µM
[10] = second compound 3.16 µM, first compound 0.1 µM
[11] = second compound 10 µM, first compound 0.0316 µM
[12] = second compound 10 µM, first compound 0.1 µM
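Note: spheroids exposed to agents for 7 days before viability read.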
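Throughout, for viability, T/C: 100% = DMSO vehicle control viability.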

With CC(=O)c1c(C)c2cnc(Nc3ccc(N4CCNCC4)cn3)nc2n(C2CCCC2)c1=O + CC(Nc1ncnc2nc[nH]c12)c1cc2cccc(Cl)c2c(=O)n1-c1ccccc1 as the molecule, how does the IC50 (second compound 0.0316 µM) read?
Its IC50 is > 0.1 µM.

What about the IC50 (second compound 0.1 µM) of the same molecule?
Its IC50 is > 0.1 µM.

And the IC50 (second compound 0.316 µM)?
Its IC50 is > 0.1 µM.

What about the IC50 (second compound 1 µM) of the same molecule?
The IC50 was > 0.1 µM.

What about the IC50 (second compound 3.16 µM) of the same molecule?
Its IC50 is > 0.1 µM.

And the IC50 (second compound 10 µM)?
Its IC50 is > 0.1 µM.

What about the viability, T/C (second compound 0.0316 µM, first compound 0.000316 µM) of the same molecule?
The viability, T/C was 102%.

And the viability, T/C (second compound 0.0316 µM, first compound 0.001 µM)?
The viability, T/C was 87.6%.

And the viability, T/C (second compound 0.0316 µM, first compound 0.00316 µM)?
Its viability, T/C is 106%.

And the viability, T/C (second compound 0.0316 µM, first compound 0.01 µM)?
Its viability, T/C is 92.5%.

What about the viability, T/C [1] of the same molecule?
Its viability, T/C is 96.6%.

What about the viability, T/C [2] of the same molecule?
The viability, T/C was 92.6%.

And the viability, T/C (second compound 0.1 µM, first compound 0.000316 µM)?
The viability, T/C was 91.4%.

And the viability, T/C (second compound 0.1 µM, first compound 0.001 µM)?
The viability, T/C was 100%.

What about the viability, T/C (second compound 0.1 µM, first compound 0.00316 µM) of the same molecule?
Its viability, T/C is 87.5%.

What about the viability, T/C (second compound 0.1 µM, first compound 0.01 µM) of the same molecule?
The viability, T/C was 91.4%.

What about the viability, T/C [3] of the same molecule?
Its viability, T/C is 99.1%.

What about the viability, T/C [4] of the same molecule?
The viability, T/C was 113%.

What about the viability, T/C (second compound 0.316 µM, first compound 0.000316 µM) of the same molecule?
Its viability, T/C is 111%.

And the viability, T/C (second compound 0.316 µM, first compound 0.001 µM)?
The viability, T/C was 89.2%.

And the viability, T/C (second compound 0.316 µM, first compound 0.00316 µM)?
Its viability, T/C is 94.1%.

What about the viability, T/C (second compound 0.316 µM, first compound 0.01 µM) of the same molecule?
Its viability, T/C is 94.5%.

And the viability, T/C [5]?
Its viability, T/C is 99.3%.

And the viability, T/C [6]?
The viability, T/C was 98%.

What about the viability, T/C (second compound 1 µM, first compound 0.000316 µM) of the same molecule?
The viability, T/C was 98.3%.

And the viability, T/C (second compound 1 µM, first compound 0.001 µM)?
Its viability, T/C is 93.5%.

What about the viability, T/C (second compound 1 µM, first compound 0.00316 µM) of the same molecule?
The viability, T/C was 86.5%.

What about the viability, T/C (second compound 1 µM, first compound 0.01 µM) of the same molecule?
Its viability, T/C is 93.2%.

What about the viability, T/C [7] of the same molecule?
Its viability, T/C is 102%.

What about the viability, T/C [8] of the same molecule?
The viability, T/C was 89.4%.

What about the viability, T/C (second compound 3.16 µM, first compound 0.000316 µM) of the same molecule?
The viability, T/C was 95.2%.

What about the viability, T/C (second compound 3.16 µM, first compound 0.001 µM) of the same molecule?
Its viability, T/C is 95%.

And the viability, T/C (second compound 3.16 µM, first compound 0.00316 µM)?
Its viability, T/C is 99.1%.

What about the viability, T/C (second compound 3.16 µM, first compound 0.01 µM) of the same molecule?
Its viability, T/C is 98.6%.

What about the viability, T/C [9] of the same molecule?
The viability, T/C was 105%.

What about the viability, T/C [10] of the same molecule?
The viability, T/C was 93.8%.

What about the viability, T/C (second compound 10 µM, first compound 0.000316 µM) of the same molecule?
Its viability, T/C is 106%.

What about the viability, T/C (second compound 10 µM, first compound 0.001 µM) of the same molecule?
The viability, T/C was 107%.

And the viability, T/C (second compound 10 µM, first compound 0.00316 µM)?
The viability, T/C was 106%.

What about the viability, T/C (second compound 10 µM, first compound 0.01 µM) of the same molecule?
The viability, T/C was 108%.

And the viability, T/C [11]?
Its viability, T/C is 106%.

What about the viability, T/C [12] of the same molecule?
Its viability, T/C is 103%.

Which results are given for CNC(=O)c1ccc(N2C(=S)N(c3ccc(C#N)c(C(F)(F)F)c3)C(=O)C2(C)C)cc1F + CC(Nc1ncnc2nc[nH]c12)c1cc2cccc(Cl)c2c(=O)n1-c1ccccc1?
IC50 (second compound 0.0316 µM): > 10 µM; IC50 (second compound 0.1 µM): > 10 µM; IC50 (second compound 0.316 µM): > 10 µM; IC50 (second compound 1 µM): > 10 µM; IC50 (second compound 3.16 µM): > 10 µM; IC50 (second compound 10 µM): > 10 µM; viability, T/C [1]: 101%; viability, T/C [2]: 113%; viability, T/C (second compound 0.0316 µM, first compound 0.316 µM): 98.4%; viability, T/C (second compound 0.0316 µM, first compound 1 µM): 102%; viability, T/C (second compound 0.0316 µM, first compound 3.16 µM): 98.4%; viability, T/C (second compound 0.0316 µM, first compound 10 µM): 100%; viability, T/C [3]: 99.7%; viability, T/C [4]: 109%; viability, T/C (second compound 0.1 µM, first compound 0.316 µM): 94.1%; viability, T/C (second compound 0.1 µM, first compound 1 µM): 116%; viability, T/C (second compound 0.1 µM, first compound 3.16 µM): 103%; viability, T/C (second compound 0.1 µM, first compound 10 µM): 106%; viability, T/C [5]: 99.5%; viability, T/C [6]: 93.8%; viability, T/C (second compound 0.316 µM, first compound 0.316 µM): 100%; viability, T/C (second compound 0.316 µM, first compound 1 µM): 108%; viability, T/C (second compound 0.316 µM, first compound 3.16 µM): 101%; viability, T/C (second compound 0.316 µM, first compound 10 µM): 97.1%; viability, T/C [7]: 96.5%; viability, T/C [8]: 102%; viability, T/C (second compound 1 µM, first compound 0.316 µM): 107%; viability, T/C (second compound 1 µM, first compound 1 µM): 106%; viability, T/C (second compound 1 µM, first compound 3.16 µM): 105%; viability, T/C (second compound 1 µM, first compound 10 µM): 94.8%; viability, T/C [9]: 102%; viability, T/C [10]: 113%; viability, T/C (second compound 3.16 µM, first compound 0.316 µM): 95%; viability, T/C (second compound 3.16 µM, first compound 1 µM): 107%; viability, T/C (second compound 3.16 µM, first compound 3.16 µM): 92.9%; viability, T/C (second compound 3.16 µM, first compound 10 µM): 110%; viability, T/C [11]: 99.5%; viability, T/C [12]: 99.2%; viability, T/C (second compound 10 µM, first compound 0.316 µM): 107%; viability, T/C (second compound 10 µM, first compound 1 µM): 99.2%; viability, T/C (second compound 10 µM, first compound 3.16 µM): 105%; viability, T/C (second compound 10 µM, first compound 10 µM): 109%

For Cn1cnc2c(F)c(Nc3ccc(Br)cc3Cl)c(C(=O)NOCCO)cc21 + CC(Nc1ncnc2nc[nH]c12)c1cc2cccc(Cl)c2c(=O)n1-c1ccccc1, which IC50 (second compound 0.0316 µM) is on record?
The IC50 was > 3 µM.

What about the IC50 (second compound 0.1 µM) of the same molecule?
Its IC50 is > 3 µM.

What about the IC50 (second compound 0.316 µM) of the same molecule?
The IC50 was > 3 µM.

And the IC50 (second compound 1 µM)?
The IC50 was > 3 µM.

What about the IC50 (second compound 3.16 µM) of the same molecule?
The IC50 was > 3 µM.

And the IC50 (second compound 10 µM)?
Its IC50 is > 3 µM.

And the viability, T/C (second compound 0.0316 µM, first compound 0.00949 µM)?
Its viability, T/C is 106%.

What about the viability, T/C (second compound 0.0316 µM, first compound 0.03 µM) of the same molecule?
Its viability, T/C is 103%.

What about the viability, T/C (second compound 0.0316 µM, first compound 0.0949 µM) of the same molecule?
Its viability, T/C is 116%.

And the viability, T/C (second compound 0.0316 µM, first compound 0.3 µM)?
Its viability, T/C is 115%.

And the viability, T/C (second compound 0.0316 µM, first compound 0.949 µM)?
The viability, T/C was 104%.

And the viability, T/C (second compound 0.0316 µM, first compound 3 µM)?
The viability, T/C was 87.2%.

And the viability, T/C (second compound 0.1 µM, first compound 0.00949 µM)?
The viability, T/C was 96%.

And the viability, T/C (second compound 0.1 µM, first compound 0.03 µM)?
The viability, T/C was 98%.

And the viability, T/C (second compound 0.1 µM, first compound 0.0949 µM)?
The viability, T/C was 109%.

And the viability, T/C (second compound 0.1 µM, first compound 0.3 µM)?
Its viability, T/C is 104%.

And the viability, T/C (second compound 0.1 µM, first compound 0.949 µM)?
Its viability, T/C is 101%.

And the viability, T/C (second compound 0.1 µM, first compound 3 µM)?
Its viability, T/C is 95.6%.

What about the viability, T/C (second compound 0.316 µM, first compound 0.00949 µM) of the same molecule?
The viability, T/C was 100%.

And the viability, T/C (second compound 0.316 µM, first compound 0.03 µM)?
The viability, T/C was 104%.

And the viability, T/C (second compound 0.316 µM, first compound 0.0949 µM)?
Its viability, T/C is 108%.

What about the viability, T/C (second compound 0.316 µM, first compound 0.3 µM) of the same molecule?
The viability, T/C was 111%.

And the viability, T/C (second compound 0.316 µM, first compound 0.949 µM)?
The viability, T/C was 112%.

What about the viability, T/C (second compound 0.316 µM, first compound 3 µM) of the same molecule?
The viability, T/C was 89%.

And the viability, T/C (second compound 1 µM, first compound 0.00949 µM)?
The viability, T/C was 97.2%.

And the viability, T/C (second compound 1 µM, first compound 0.03 µM)?
Its viability, T/C is 99.6%.

And the viability, T/C (second compound 1 µM, first compound 0.0949 µM)?
The viability, T/C was 110%.

And the viability, T/C (second compound 1 µM, first compound 0.3 µM)?
The viability, T/C was 103%.

And the viability, T/C (second compound 1 µM, first compound 0.949 µM)?
Its viability, T/C is 106%.

What about the viability, T/C (second compound 1 µM, first compound 3 µM) of the same molecule?
The viability, T/C was 84.1%.

And the viability, T/C (second compound 3.16 µM, first compound 0.00949 µM)?
Its viability, T/C is 94.5%.

What about the viability, T/C (second compound 3.16 µM, first compound 0.03 µM) of the same molecule?
The viability, T/C was 119%.

And the viability, T/C (second compound 3.16 µM, first compound 0.0949 µM)?
Its viability, T/C is 105%.

And the viability, T/C (second compound 3.16 µM, first compound 0.3 µM)?
Its viability, T/C is 107%.

And the viability, T/C (second compound 3.16 µM, first compound 0.949 µM)?
Its viability, T/C is 102%.

What about the viability, T/C (second compound 3.16 µM, first compound 3 µM) of the same molecule?
The viability, T/C was 73.8%.

And the viability, T/C (second compound 10 µM, first compound 0.00949 µM)?
The viability, T/C was 101%.

And the viability, T/C (second compound 10 µM, first compound 0.03 µM)?
Its viability, T/C is 98.8%.

What about the viability, T/C (second compound 10 µM, first compound 0.0949 µM) of the same molecule?
The viability, T/C was 97.2%.

And the viability, T/C (second compound 10 µM, first compound 0.3 µM)?
Its viability, T/C is 98.4%.

What about the viability, T/C (second compound 10 µM, first compound 0.949 µM) of the same molecule?
Its viability, T/C is 93.7%.

And the viability, T/C (second compound 10 µM, first compound 3 µM)?
The viability, T/C was 60.6%.
